pEC50: −log10 of the molar value. Structures can show the parent of a compound that is named as a salt.

For this experiment, the target named is human activated kallikrein enzyme (Homo sapiens, UniProt P03952). As to the kind of experiment: Inhibition of human activated kallikrein enzyme, fluorogenic peptide substrate assay (500 pM enzyme format). Type of experiment: biochemical. Conditions: 500 pM activated kallikrein, 300 μM PFR-AMC substrate, 30 min preincubation, 10 min reaction, room temperature; read-out: Primary Dose Response Assay: Average EC50. The procedure: Compounds were evaluated for inhibition of the human activated kallikrein enzyme in two formats of an assay employing a fluorogenic peptide substrate. In one assay format, the concentrations of reagents were as follows: 20 mM Tris pH 7.5, 1 mM EDTA, 150 mM sodium chloride, 0.1% PEG-400, 0.1% Triton X-100, 500 pM activated kallikrein enzyme, 300 μM Pro-Phe-Arg-7-amido-4-methylcoumarin (PFR-AMC) substrate. Prior to reaction initiation with substrate, enzyme and inhibitors were preincubated for 30 min at room temperature. After initiation with substrate, reactions were incubated for 10 min at room temperature and fluorescence emission at 460 nm from 380 nm excitation measured with a microplate reader. In another assay format, the concentrations of reagents were as follows: 20 mM Tris pH 7.5, 1 mM EDTA, 150 mM sodium chloride, 0.1% PEG-400, 0.1% Triton X-100, 5 pM activated kallikrein enzyme, 300 uM PFR-AMC substrate. Prior to reaction initiation with substrate, enzyme and inhibitors were preincubated for 30 min at room temperature. After initiation with substrate, reactions were incubated for 18 hr at room temperature and fluorescence emission at 460 nm from 380 nm excitation measured with a microplate reader.
Sequence of human activated kallikrein enzyme (P03952 391-638 limits assumed): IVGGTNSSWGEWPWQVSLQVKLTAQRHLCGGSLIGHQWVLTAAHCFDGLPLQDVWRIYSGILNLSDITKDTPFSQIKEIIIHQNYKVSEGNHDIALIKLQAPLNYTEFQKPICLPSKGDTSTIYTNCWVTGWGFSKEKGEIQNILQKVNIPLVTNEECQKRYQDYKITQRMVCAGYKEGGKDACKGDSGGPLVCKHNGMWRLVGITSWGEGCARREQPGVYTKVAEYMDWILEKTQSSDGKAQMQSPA
Sequence of human activated kallikrein enzyme (P03952 20-390 partner limits assumed): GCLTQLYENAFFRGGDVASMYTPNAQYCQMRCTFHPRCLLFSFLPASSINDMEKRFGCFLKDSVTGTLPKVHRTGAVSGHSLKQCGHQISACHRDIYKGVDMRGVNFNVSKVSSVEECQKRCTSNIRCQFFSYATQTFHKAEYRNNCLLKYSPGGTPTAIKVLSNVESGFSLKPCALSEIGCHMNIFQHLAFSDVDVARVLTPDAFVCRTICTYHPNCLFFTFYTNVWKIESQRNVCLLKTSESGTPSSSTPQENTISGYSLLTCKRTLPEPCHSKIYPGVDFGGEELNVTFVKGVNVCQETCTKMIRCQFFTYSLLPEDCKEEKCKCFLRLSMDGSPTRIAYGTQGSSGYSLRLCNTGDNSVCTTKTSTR
Table 1 provides the results of the assay in the format with 500 pM activated kallikrein assay. For the compounds listed in Table 1, the EC50 values are reported according to the following ranges: A≤5.0 nM; 5.0 nM<B≤50 nM; 50 nM<C≤500 nM; 500 nM<D≤9000 nM; 9000 nM<E.
In general, pEC50 refers to −log10 of the EC50, conventionally taken in molar units. In the case of `CC(O)(C(=O)Nc1cc(NCc2cn3cc(C4CC4)ccc3n2)ncn1)c1ncn2ccc(Cl)c(F)c12` (centres unmarked) [Example 106, 2-(7-chloro-8-fluoroimidazo[1,5-a]pyridin-1-yl)-N-(6-(((6-cyclopropylimidazo[1,2-a]pyridin-2-yl)methyl)amino)pyrimidin-4-yl)-2-hydroxypropanamide], the pEC50 is less than 5.05.

Consider `O=C(Cc1ncn2ccc(Cl)cc12)Nc1cc(OCc2cn3cc(C4CC4)ccc3n2)ccn1` [Example 23, 2-(7-chloroimidazo[1,5-a]pyridin-1-yl)-N-(4-((6-cyclopropylimidazo[1,2-a]pyridin-2-yl)methoxy)pyridin-2-yl)acetamide], for which the pEC50 was 7.30 to 8.30.

Regarding `O=C(Nc1cc(NCc2cn3cc(C4CC4)ccc3n2)ccn1)c1ccc2ccc(Cl)cc2c1` [Example 118, 7-chloro-N-(4-(((6-cyclopropylimidazo[1,2-a]pyridin-2-yl)methyl)amino)pyridin-2-yl)-2-naphthamide], the pEC50 was 6.30 to 7.30.

In the case of `Cc1cc(C(=N)N)cc(C)c1CNc1cc(OCc2cn3cc(C4CC4)ccc3n2)nc(CCC(=O)O)n1` [Example 74, 3-(4-((4-carbamimidoyl-2,6-dimethylbenzyl)amino)-6-((6-cyclopropylimidazo[1,2-a]pyridin-2-yl)methoxy)pyrimidin-2-yl)propanoic acid formic acid salt], the pEC50 is not below 8.30.

In the case of `O=C(Cn1c(=O)oc2ccc(Cl)cc21)Nc1cc(NCc2cn3cc(C4CC4)ccc3n2)ccn1` [Example 124, 2-(5-chloro-2-oxobenzo[d]oxazol-3 (2H)-yl)-N-(4-(((6-cyclopropylimidazo[1,2-a]pyridin-2-yl)methyl)amino)pyridin-2-yl)acetamide], the pEC50 is 5.05 to 6.30.

With `O=C(Nc1cc(NCc2cn3cc(C4CC4)ccc3n2)ncn1)C(=O)c1ncn2ccc(Cl)cc12` [Example 54, 2-(7-chloroimidazo[1,5-a]pyridin-1-yl)-N-(6-(((6-cyclopropylimidazo[1,2-a]pyridin-2-yl)methy)amino)pyrimidin-4-yl)-2-oxoacetamide], the pEC50 was not below 8.30.

As for `CCOC(=O)C(C)(C)Cc1nc(NCc2c(C)cc(C(=N)N)cc2C)cc(OCc2cn3cc(C4CC4)ccc3n2)n1` [Example 93, ethyl 3-(4-((4-carbamimidoyl-2,6-dimethylbenzyl)amino)-6-((6-cyclopropylimidazo[1,2-a]pyridin-2-yl)methoxy)pyrimidin-2-yl)-2,2-dimethylpropanoate], the pEC50 was not below 8.30.

Consider `Clc1cccc([C@H]2C[C@@H]2CNc2cc(NCc3cn4cc(C5CC5)ccc4n3)ncn2)c1` [Example 138, N^4-(((1S,2S)-2-(3-chlorophenyl)cyclopropyl)methyl)-N^6-((6-cyclopropylimidazo[1,2-a]pyridin-2-yl)methyl)pyrimidine-4,6-diamine], for which the pEC50 is 5.05 to 6.30.

For the compound `COc1ccc2oc(=O)n(CC(=O)Nc3cc(NCc4cn5cc(C6CC6)ccc5n4)ncn3)c2c1` [Example 122, N-(6-(((6-cyclopropylimidazo[1,2-a]pyridin-2-yl)methyl)amino)pyrimidin-4-yl)-2-(5-methoxy-2-oxobenzo[d]oxazol-3 (2H)-yl)acetamide], the pEC50 is less than 5.05.

Regarding `Cc1cc(C(=N)N)cc(C)c1CNc1cc(OCc2cn3cc(C4CC4)ccc3n2)ncn1` [Example 72, 4-(((6-((6-cyclopropylimidazo[1,2-a]pyridin-2-yl)methoxy)pyrimidin-4-yl)amino)methyl)-3,5-dimethylbenzimidamide formic acid salt], the pEC50 is not below 8.30.

Consider `COc1ccnc(CC(=O)Nc2cc(NCc3cn4cc(C5CC5)cc(N5CCCC5=O)c4n3)ccn2)c1F` [Example 24, N-(4-(((6-cyclopropyl-8-(2-oxopyrrolidin-1-yl)imidazo[1,2-a]pyridin-2-yl)methyl)amino)pyridin-2-yl)-2-(3-fluoro-4-methoxypyridin-2-yl)acetamide], for which the pEC50 is 7.30 to 8.30.

The values are drawn from patent publication US20240382482A1, “PLASMA KALLIKREIN INHIBITORS” (TAKEDA PHARMACEUTICAL COMPANY LIMITED, priority 2021, published 2024).
